Assay [1] has as its system memory disturbed by Scopolamine. Put plainly: Passive Avoidance of mice in the Shuttle Chamber, memory disturbed by Scopolamine. The format is in vivo. The note with it: aged male BALB/c mice; Scopolamine 0.3 mg/kg, injected 30 minutes before training; retest in 22-24 hours. The method, then:
A shuttle chamber (Ugo Basile, Italy) consisted of two sections was used. The walls of one section were opaque while the other section had transparent cover. The sections were connected through a hole which could be overlapped by vertical door. The floor was made of transverse metal bars on which DC current impulses could be fed. Experiments were carried out in aged male mice of BALB/c line weighing 20-24 grams.
On the first day of testing 30 minutes before training mice were injected intraintestinally with physiological solutions of Scopolamine (0.3 mg/kg) or Scopolamine in combination with active ingredient 1.1(1). Each group consisted of at least 8 animals. Animals were placed in light section, and latent period of the first entry into dark chamber was registered. Then vertical door was closed and the animal was punished by 0.6 mA DC current for 3 seconds. After that the animal was taken back to its homecage. In 22-24 hours the same animal was placed again in light section of the shuttle chamber and latent period of its first entry into dark section, the total time of its stay in light section and the number of entries into dark section, was registered. Each monitoring lasted for 5 minutes.
Testing was carried out during the day time in isolated laboratory using white noise at level of about 70 decibel above human hearing threshold. […]

Assay [2] concerns the target T1, serotonin 5-HT6 receptor (Homo sapiens, UniProt P50406).
T1 construct: expressed in transfected cells; host or cells: HEK 293
Put plainly: Functional assay: antagonism of serotonin-induced intracellular cAMP (LANCE cAMP) in HEK 293 cells expressing 5-HT6 receptor. The format is cell-based. The note with it: HEK 293 cells with expressed 5-HT6 receptor, read-out: IC50 of serotonin 5-HT6 receptor inhibition in the setting of functional assay. The method, then: Determination of antagonistic activity of compounds of general formula 1 towards 5-HT6 receptors. Compounds of general formula 1 were tested for their ability to prevent 5-HT6 receptors activation by serotonin. HEK 293 cells (cells of human embryo's kidney) with artificially expressed 5-HT6 receptor, activation of which by serotonin leads to increasing the concentration of intracellular cAMP were used. The content of intracellular cAMP was determined using reagent kit LANCE cAMP (PerkinElmer) according to the method described by the manufacturer of the kit [http://las.perkinelmer.com/content/Manuals/MAN_LANCEcAMP384KitUser.pdf]. Effectiveness of compounds was estimated by their ability to reduce the content of intracellular cAMP induced by serotonin. Table 3 presents ICso values of serotonin 5-HT6 receptor inhibition by antagonists of general formula 1 and 2 in the setting of functional assay. The data given testify their high antagonistic activity.
On the technique in general: TR-FRET usually uses a lanthanide donor and a delayed reading to cut background.

Assay [3] concerns mice behavior in elevated plus maze. Put plainly: Mice Behavior in the Elevated Plus Maze (anxiolytic action). The assay is classed as in vivo. The note with it: five minutes. An excerpt:
Anxiolytic (tranquilizing) action of compounds of general formulas 1 and 2 in the test “Mice Behavior in the Elevated Plus Maze”. The length of each arm of the maze is 30 cm, width is 5 cm, and height of walls is 15 cm. Two opposite arms are closed from both sides and end faces by transparent walls, the other two arms are lit and opened. A mouse was placed in the center of maze, and for the next five minutes the number of entries into opened and closed arms and the time spent in each type of arms was registered. […] The animals usually avoid opened arms (the preference index is between 0.2 and 0.3). Compounds with tranquilizing action increase this index up to 0.5-0.6 or even more and reduce the number of defecations without changing the overall motion activity of the mice (the total number of entries to the arms).

The target of assay [4] is T2, recombinant human 5-HT6 receptors (Homo sapiens, UniProt P50406).
T2 construct: expressed in transfected cells; host or cells: HeLa (membrane preparation)
Put plainly: Competitive radioligand binding ([3H] Lysergic acid diethylamide) to membranes of HeLa cells expressing recombinant human 5-HT6 receptors. The note with it: 1.5 nM [3H] Lysergic acid diethylamide, 120 min, 37° C., HeLa cell membranes; for IC50: read-out: IC50 of serotonin 5-HT6 receptor inhibition in the setting of competitive binding; for Ki: read-out: Ki of serotonin 5-HT6 receptor inhibition in the setting of competitive binding. The method, then: Activity determination of serotonin 5-HT6 receptor antagonists of the general formula 1 in the setting of competitive binding to serotonin 5-HT6 receptors.
Screening of disclosed compounds for their potential ability to interact with serotonin 5-HT6 receptors was carried out by method of radioligand binding. For this purpose membrane species were prepared from expressing recombinant human 5-HT6 receptors HeLa cells by means of their homogenization in glass homogenizer with subsequent separation of plasmatic membranes from cell nucli, mitochondria's and cell wreckages by differential centrifugation. […] Mol Pharmacol. 43:320-327, 1993]. In the preferred embodiment membrane preparations were incubated with radioligand (1.5 nM [^3H] Lysergic acid diethylamide) without and in the presence of investigated compounds for 120 min at 37° C. in medium consisting of […], pH 7.4, 150 mM NaCl, 2 mM Ascorbic Acid, 0.001% BSA. After incubation the samples were filtered in vacuo on glass-microfiber filters G/F (Millipor, USA), filters were washed three times with cold solution of medium and radioactivity was measured by scintillation counter MicroBeta 340 (PerkinElmer, USA). Nonspecific binding which made up 30% of overall binding was determined by incubation of membrane preparations with radioligand in the presence of 5 μM Serotonin (5-HT). Methiothepin was used as positive control. Binding of tested compounds with the receptor was determined by their ability to displace the radioligand and expressed in percent of displacement. The percent of displacement was calculated according to the following equation:
[formula] wherein: TA—was overall radioactivity in the presence of radioligand only, CA—was radioactivity in the presence of radioligand and tested compound and NA—was radioactivity in the presence of radioligand and Serotonin (5 μM).
Table 4 presents the test results for some serotonin 5-HT6 receptor antagonists of general formulas 1 and 2 in the setting of competitive binding to serotonin 5-HT6 receptors, testifying their high activity towards serotonin 5-HT6 receptors.

In assay [5] the test system is memory disturbed by MK-801. The experiment in a line: Passive Avoidance of mice in the Shuttle Chamber, memory disturbed by MK-801. The format is in vivo. The note with it: MK-801 0.1 mg/kg, injected 30 minutes before training. On the procedure: The testing was carried out as in example 7. On the first day of testing 30 minutes before training the mice were injected intraintestinally with physiological solution of MK-801 (0.1 mg/kg). Concurrently, physiological solution of MK-801 in combination with active ingredient 1.1(1) was injected intraintestinally to independent groups of mice before training.

T1 sequence (P50406 whole entry): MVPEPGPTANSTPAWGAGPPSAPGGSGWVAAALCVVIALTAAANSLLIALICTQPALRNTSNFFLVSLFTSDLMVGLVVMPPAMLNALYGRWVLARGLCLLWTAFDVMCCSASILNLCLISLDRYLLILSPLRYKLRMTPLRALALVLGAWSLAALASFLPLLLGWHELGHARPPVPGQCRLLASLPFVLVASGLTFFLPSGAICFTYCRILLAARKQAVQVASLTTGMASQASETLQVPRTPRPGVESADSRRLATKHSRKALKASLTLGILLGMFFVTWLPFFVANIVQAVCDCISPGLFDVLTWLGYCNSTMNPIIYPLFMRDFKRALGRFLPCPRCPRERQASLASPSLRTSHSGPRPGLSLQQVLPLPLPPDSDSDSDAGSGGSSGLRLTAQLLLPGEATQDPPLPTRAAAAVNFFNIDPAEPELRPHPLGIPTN
T2 sequence (P50406 whole entry): as above

Consider `CNc1nn2c3c(cnc2c1S(=O)(=O)c1ccccc1)CCC3` [1.1(1), 2-methylamino-3-(phenylsulfonyl)-7,8-dihydro-6H-cyclopenta[e]pyrazolo[1,5-a]pyrimidine], for which the “Nootropic action (enhancement of memory disturbed by Scopolamine)” value in assay [1] is on record as “nootropic action”. The IC50 (in general, the concentration that inhibits the measured activity by half) in assay [2] is 4.8 nM. The “Anxiolytic (tranquilizing) action” value in assay [3] is “anxiolytic (tranquilizing) action which is comparable with the activity of Buspirone and Lorasepam”. Besides, in assay [4], the IC50 came to 0.157 nM; the Ki – broadly, the dissociation constant of the complex between target and ligand, obtained from inhibition or displacement – came to 0.073 nM. The “Nootropic action (enhancement of memory disturbed by MK-801)” value in assay [5] is on record as “nootropic effect”.
For the molecule `CNc1nn2c3c(c(C)nc2c1S(=O)(=O)c1ccccc1)CCC3` [1.1(3), 5-methyl-2-methylamino-3-(phenylsulfonyl)-7,8-dihydro-6H-cyclopenta[e]pyrazolo[1,5-a]pyrimidine], in assay [2], the IC50 was determined as 7 nM. Further, in assay [4], the IC50 is 0.436 nM and the Ki is 0.202 nM.
For `CNc1nn2c3c(cnc2c1S(=O)(=O)c1ccccc1)CCCC3` [1.2(1), 2-methylamino-3-(phenylsulfonyl)-6,7,8,9-tetrahydrocyclohexa[e]pyrazolo[1,5-a]pyrimidine], in that order: 4.4 nM, 0.241 nM and 0.112 nM.
Turning to `CNc1nn2c3c(c(C)nc2c1S(=O)(=O)c1ccccc1)CCCC3` [1.2(3), 5-methyl-2-methylamino-(3-phenylsulfonyl)-6,7,8,9-tetrahydrocyclohexa[e]pyrazolo[1,5-a]pyrimidine], in assay [4], the 50% inhibitory concentration (IC50) was determined as 1.05 nM and the Ki amounted to 0.49 nM.
For the molecule `CNc1nn2cc3c(nc2c1S(=O)(=O)c1ccccc1)CCCC3` [2(1)], the half-maximal inhibitory concentration (IC50) in assay [2] was 7.5 nM; in assay [4], 1.07 nM. In assay [4], the Ki was found to be 0.499 nM.
Take `CNc1nn2c(C)c3c(nc2c1S(=O)(=O)c1ccccc1)CCCC3` [2(2)]: the IC50 in assay [2] was 15.5 nM; in assay [4] it was 0.551 nM. In addition, the Ki in assay [4] was determined as 0.256 nM.

Source of the values: US8471009B2, “(EN) 2-alkylamino-3-arylsulfonyl-cycloalcano [e OR d] pyrazolo [1,5-A]pyrimidines / antagonists of serotonin 5-HT6 receptors, methods for the production and the use thereof” (priority 2008, dated 2013).
